Values quoted from earlier work, collected in paper PMC7645643 (Engineering in Life Sciences, 2020).

**Q.** With Enfuvirtide [T-20] as the substance, how does the in vivo half-life read?
**A.** The in vivo half-life was “approximately 4 h”.
